Results published in US20230278972A1, “SUBSTITUTED HALOALKYL SULFONANILIDE HERBICIDES” (FMC Corporation, priority 2020, published 2023).

Key:
Format in all cases: in vivo
[1] = tested on: barnyardgrass (Echinochloa crus-galli); test: Test A preemergence, barnyardgrass; conditions: Preemergence; for Plant response rating, Barnyardgrass: 31 g ai/ha, visual injury, 0 to 100 scale (0 no effect, 100 complete control), approx. 10 days; for Barnyardgrass plant response rating: 125 g ai/ha, visual injury on 0 to 100 scale (0 no effect, 100 complete control), approximately 10 days
Summary of the method: (§1)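 Greenhouse pot test in a loam–sand blend; compounds delivered in a non-phytotoxic solvent carrying a surfactant, applied either as a directed spray to soil at seeding or over seedlings 2 to 10 cm high with one to two leaves.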

kochia (Bassia scoparia) [2] = test: Test A preemergence, kochia; conditions: Preemergence; for Plant response rating, Kochia: 31 g ai/ha, visual injury, 0 to 100 scale (0 no effect, 100 complete control), approx. 10 days; for Kochia plant response rating: 125 g ai/ha, visual injury on 0 to 100 scale (0 no effect, 100 complete control), approximately 10 days
Summary of the method: as §1

[3] = tested on: ragweed (common ragweed, Ambrosia artemisiifolia); test: Test A preemergence, ragweed; conditions: Preemergence; for Plant response rating, Ragweed: 31 g ai/ha, visual injury, 0 to 100 scale (0 no effect, 100 complete control), approx. 10 days; for Ragweed plant response rating: 125 g ai/ha, visual injury on 0 to 100 scale (0 no effect, 100 complete control), approximately 10 days
Summary of the method: as §1

[4] = tested on: Ryegrass, Italian (Italian ryegrass, Lolium multiflorum); test: Test A preemergence, Ryegrass, Italian; conditions: Preemergence; for Plant response rating, Ryegrass, Italian: 31 g ai/ha, visual injury, 0 to 100 scale (0 no effect, 100 complete control), approx. 10 days; for Ryegrass, Italian plant response rating: 125 g ai/ha, visual injury on 0 to 100 scale (0 no effect, 100 complete control), approximately 10 days
Summary of the method: as §1

[5] = tested on: Foxtail, Giant (giant foxtail, Setaria faberi); test: Test A preemergence, Foxtail, Giant; conditions: Preemergence; for Plant response rating, Foxtail, Giant: 31 g ai/ha, visual injury, 0 to 100 scale (0 no effect, 100 complete control), approx. 10 days; for Foxtail, Giant plant response rating: 125 g ai/ha, visual injury on 0 to 100 scale (0 no effect, 100 complete control), approximately 10 days
Summary of the method: as §1

[6] = tested on: pigweed (Amaranthus retroflexus); test: Test A preemergence, pigweed; conditions: for Plant response rating, Pigweed: 31 g ai/ha, visual injury, 0 to 100 scale (0 no effect, 100 complete control), approx. 10 days; for Pigweed plant response rating: 125 g ai/ha, visual injury on 0 to 100 scale (0 no effect, 100 complete control), approximately 10 days
Summary of the method: (§2)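 Postemergence ratings come from foliar sprays onto one- to two-leaf plants of 2 to 10 cm grown in loam/sand; preemergence ratings come from a directed spray onto the soil of newly seeded pots. Formulation was a surfactant-containing non-phytotoxic solvent blend.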

[7] = tested on: barnyardgrass (Echinochloa crus-galli); test: Test A postemergence, barnyardgrass; conditions: Postemergence
Summary of the method: as §2

kochia (Bassia scoparia) [8] = test: Test A postemergence, kochia; conditions: Postemergence
Summary of the method: as §1

[9] = tested on: ragweed (common ragweed, Ambrosia artemisiifolia); test: Test A postemergence, ragweed; conditions: Postemergence
Summary of the method: as §1

[10] = tested on: Ryegrass, Italian (Italian ryegrass, Lolium multiflorum); test: Test A postemergence, Ryegrass, Italian; conditions: Postemergence
Summary of the method: as §1

[11] = tested on: Foxtail, Giant (giant foxtail, Setaria faberi); test: Test A postemergence, Foxtail, Giant; conditions: Postemergence
Summary of the method: as §1

[12] = tested on: pigweed (Amaranthus retroflexus); test: Test A postemergence, pigweed; conditions: Postemergence
Summary of the method: as §1

[13] = tested on: wheat (Triticum aestivum); test: Test A postemergence, wheat; conditions: Postemergence
Summary of the method: as §2

corn (Zea mays) = test: Test A postemergence, corn; conditions: Postemergence
Summary of the method: as §1

[14] = tested on: blackgrass (Alopecurus myosuroides); test: Test A postemergence, blackgrass; conditions: Postemergence
Summary of the method: as §1

[15] = tested on: galium (catchweed bedstraw, Galium aparine); test: Test A postemergence, galium; conditions: Postemergence
Summary of the method: as §2

[16] = 31 g ai/ha, 0 to 100 scale (0 no effect, 100 complete control)
[17] = 125 g ai/ha, 0 to 100 scale (0 no effect, 100 complete control)
[18] = 31 g ai/ha, visual injury on 0 to 100 scale (0 no effect, 100 complete control), approx. 10 days

| Compound | Plant response rating, Barnyardgrass [1] | Barnyardgrass plant response rating [1] | Plant response rating, Kochia (kochia (Bassia scoparia) [2]) | Kochia plant response rating (kochia (Bassia scoparia) [2]) | Plant response rating, Ragweed [3] | Ragweed plant response rating [3] | Plant response rating, Ryegrass, Italian [4] | Ryegrass, Italian plant response rating [4] | Plant response rating, Foxtail, Giant [5] | Foxtail, Giant plant response rating [5] | Plant response rating, Pigweed [6] | Pigweed plant response rating [6] | Plant response rating, Barnyardgrass [7, 17] | Plant response rating, Kochia (kochia (Bassia scoparia) [8]; [18]) | Plant response rating, Kochia (kochia (Bassia scoparia) [8]; [17]) | Plant response rating, Ragweed [9, 18] | Plant response rating, Ragweed [9, 17] | Plant response rating, Ryegrass, Italian [10, 18] | Plant response rating, Ryegrass, Italian [10, 17] | Plant response rating, Foxtail, Giant [11, 18] | also measured |
| --- | --- | --- | --- | --- | --- | --- | --- | --- | --- | --- | --- | --- | --- | --- | --- | --- | --- | --- | --- | --- | --- |
| Cc1cc(C)c(N(COC(=O)C2CCCC2)S(=O)(=O)C(F)(F)F)cc1C1=NOC2(CCCC2)C1 [Compound 150] | 0 | 90 | 0 | 0 | 0 | 0 | 40 | 90 | 20 | 100 | 40 | 100 | 50 | 10 | 10 | 0 | 0 | 0 | 0 | 0 | Plant response rating, Barnyardgrass [7, 16]: 0; Plant response rating, Foxtail, Giant [11, 17]: 20; Plant response rating, Pigweed [12, 18]: 20; Plant response rating, Pigweed [12, 17]: 40; Plant response rating, Wheat [13, 18]: 0; Plant response rating, Wheat [13, 17]: 60; Plant response rating, Corn (corn (Zea mays); [18]): 0; Plant response rating, Corn (corn (Zea mays); [17]): 0; Plant response rating, Blackgrass [14, 16]: 0; Plant response rating, Blackgrass [14, 17]: 0; Plant response rating, Galium [15, 18]: 40; Plant response rating, Galium [15, 17]: 60 |
| CCC(C)C(=O)OCN(c1cc(C2=NOC3(CCCC3)C2)c(C)cc1C)S(=O)(=O)C(F)(F)F (stereo not shown) [Compound 151] | 0 | 90 | 0 | 0 | 0 | 30 | 30 | 90 | 60 | 100 | 50 | 90 | 30 | 10 | 10 | 0 | 40 | 0 | 0 | 0 | Plant response rating, Barnyardgrass [7, 16]: 0; Plant response rating, Foxtail, Giant [11, 17]: 30; Plant response rating, Pigweed [12, 18]: 30; Plant response rating, Pigweed [12, 17]: 30; Plant response rating, Wheat [13, 18]: 0; Plant response rating, Wheat [13, 17]: 50; Plant response rating, Corn (corn (Zea mays); [18]): 0; Plant response rating, Corn (corn (Zea mays); [17]): 10; Plant response rating, Blackgrass [14, 16]: 0; Plant response rating, Blackgrass [14, 17]: 0; Plant response rating, Galium [15, 18]: 60; Plant response rating, Galium [15, 17]: 70 |
| Cc1cc(C)c(N(COC(=O)CC(C)C)S(=O)(=O)C(F)(F)F)cc1C1=NOC2(CCCC2)C1 [Compound 152] | 0 | 70 | 0 | 0 | 0 | 30 | 0 | 40 | 40 | 80 | 30 | 100 | 10 | 10 | 10 | 0 | 40 | 0 | 0 | 10 | Plant response rating, Barnyardgrass [7, 18]: 0; Plant response rating, Foxtail, Giant [11, 17]: 10; Plant response rating, Pigweed [12, 18]: 30; Plant response rating, Pigweed [12, 17]: 60; Plant response rating, Wheat [13, 18]: 40; Plant response rating, Wheat [13, 17]: 30; Plant response rating, Corn (corn (Zea mays); [18]): 10; Plant response rating, Corn (corn (Zea mays); [17]): 0; Plant response rating, Blackgrass [14, 18]: 0; Plant response rating, Blackgrass [14, 17]: 0; Plant response rating, Galium [15, 18]: 20; Plant response rating, Galium [15, 17]: 60 |
| Cc1cc(Cl)c(NS(=O)(=O)C(F)(F)F)cc1C(=O)N1CCOCC1(C)C [Compound 153] | 0 | 70 | 60 | 80 | 40 | 60 | 30 | 70 | 40 | 90 | 80 | 90 | 50 | 0 | 10 | 30 | 70 | 30 | 80 | 10 | Plant response rating, Barnyardgrass [7, 18]: 10; Plant response rating, Foxtail, Giant [11, 17]: 20; Plant response rating, Pigweed [12, 18]: 0; Plant response rating, Pigweed [12, 17]: 30; Plant response rating, Wheat [13, 18]: 0; Plant response rating, Wheat [13, 17]: 30; Plant response rating, Corn (corn (Zea mays); [18]): 0; Plant response rating, Corn (corn (Zea mays); [17]): 20; Plant response rating, Blackgrass [14, 18]: 0; Plant response rating, Blackgrass [14, 17]: 50; Plant response rating, Galium [15, 18]: 60; Plant response rating, Galium [15, 17]: 70 |
| CCOC1CCCN(C(=O)c2cc(NS(=O)(=O)C(F)(F)F)c(C)cc2C)C1 (stereo not shown) [Compound 154] | 0 | 50 | 0 | 40 | 50 | 80 | 20 | 70 | 60 | 90 | 20 | 100 | 70 | 10 | 30 | 0 | 20 | 0 | 0 | 20 | Plant response rating, Barnyardgrass [7, 18]: 30; Plant response rating, Foxtail, Giant [11, 17]: 20; Plant response rating, Pigweed [12, 18]: 40; Plant response rating, Pigweed [12, 17]: 60; Plant response rating, Wheat [13, 18]: 30; Plant response rating, Wheat [13, 17]: 70; Plant response rating, Corn (corn (Zea mays); [18]): 0; Plant response rating, Corn (corn (Zea mays); [17]): 10; Plant response rating, Blackgrass [14, 18]: 0; Plant response rating, Blackgrass [14, 17]: 20; Plant response rating, Galium [15, 18]: 50; Plant response rating, Galium [15, 17]: 80 |
